“Also recorded” adds a separate entry of the source. Counter-ions that a name gives are not always drawn.
Columns and labels:
Format in all cases: in vivo, Dark Agouti rats
[1] = tested on: GSH/GSSG ratio and lipoperoxides (LPO); assay: Biomarkers of oxidative stress (LPO, GSH/GSSG ratio) in brain and spinal cord of EAE rats; details: FIG. 4; for GSH/GSSG ratio in brain and spinal cord: Example 3, end of study (35 days), NAC and SAC oral 50 mg/kg, versus untreated EAE
Source text: (§1) 70 Dark Agouti rats were used, 35 females and 35 males. Each group of 10 animals had 5 male rats housed in individual boxes and 5 females equally maintained in individual boxes. The following groups were included: i) Controls (untreated healthy animals); ii) vehicle (animals injected in the tail with 100 microlitres of Freund's complete adjuvant (FCA) but without the EAE-inducing peptide, the MOG peptide ([…]); iii) EAE (animals injected once into the tail with 150 μg of MOG (Sigma-Aldrich) in 100 microlitres of FCA); iv) EAE+dimethyl fumarate (EAE+DMF); v) EAE+N-acetyl cysteine (EAE+NAC); and vi) EAE+SAC. The treatments with NAC and SAC were administered to the animals orally using a probe and at a dose of 50 mg/kg of animal weight.
At the end of the study, the animals were decapitated at a controlled temperature using intraperitoneal anaesthesia with ketamine 75 mg/kg (Imalgene 100 mg/ml, Merial Laboratories, Barcelona, Spain). The brains, blood and spinal cord were extracted, weighed and homogenized with a mechanical homogenizer (Tempest Virtis), using 20 mM Tris at pH 7.4 as a buffer. The samples were centrifuged cold and the supernatants were immediately collected and stored at −80° C.
Total protein levels were quantified by the Bradford method and referenced to the original tissue weight. Oxidative stress parameters such as lipid peroxidation (LPO), total glutathione (tG) and reduced glutathione (GSH) were then measured in blood, brain and spinal cord using kits from Bioxytech SA (Oxis International, Portland, Oreg., USA): LPO-586, GSH-420 and GSH-400, respectively. Oxidised glutathione levels (GSSG) were calculated by subtracting reduced glutathione from total glutathione and the GSH/GSSG ratio was calculated.
(§2) The statistical analysis was performed with the SPSS program (SPSS Ibérica, Madrid, Spain). The data are reported as mean±standard deviation (SD). […] To analyse the correlation between the biochemical parameters and the mobility of the animals at 35 days (Clinical assessment-35), Spearman's rho correlation coefficient was used. The level of statistical significance was established at p<0.05.

[2] = tested on: EAE (experimental autoimmune encephalomyelitis); assay: Clinical assessment of mobility in rats with EAE induced by MOG/FCA; details: for Change in the clinical assessment of mobility between day 35 and day 14: Example 3, NAC and SAC oral 50 mg/kg, treatment for 21 days, FIG. 3; for Change in the clinical assessment of mobility between days 35 and 14: FIG. 5
Protocol: Next, an experiment was designed to study the effect of SAC in rats with EAE (experimental autoimmune encephalomyelitis), a model of multiple sclerosis widely used for the development of new treatments for this neurodegenerative disease in humans. To evaluate the effect of this compound on the disease, the change in clinical parameters of mobility in each of the joints and in the tail (clinical score or clinical assessment) was measured, as well as the biomarkers of oxidative stress that explain the change in joint mobility in rats.
as §1
The mobility of the rats was evaluated using the method described by Pérez-Nievas (Pérez-Nievas, 2010) in which 0 is equivalent to not having any affected joint or tail; 1 equals paralysis in the tail; 2 equals partial mobility in the hind legs; 3 equals paralysis in the hind legs; 4 equals paralysis in the hind legs and partial mobility in the front legs and 5 equals a dying animal or that must be sacrificed for ethical reasons.
as §2
Next, an experiment was designed to study whether the effect of NAC and SAC were different depending on the dose administered in animal models of EAE. For this, the change in clinical parameters of mobility in each of the joints and the tail (clinical score or clinical assessment) was measured at 2 different doses of NAC and SAC; 18 mg/kg and 50 mg/kg administered orally for 5 days a week and following the same experimental design as Example 3.
(§3) 70 Dark Agouti rats, 35 females and 35 males, were used. Each group of 10 animals had 5 male rats housed in individual boxes and 5 females equally maintained in individual boxes. The following groups were included: i) Controls (untreated healthy animals); ii) vehicle (animals injected in the tail with 100 microlitres of Freund's complete adjuvant (FCA) but without the EAE-inducing peptide, the MOG peptide; iii) EAE (animals injected 1 time in the tail with 150 μg of MOG (Sigma-Aldrich) in 100 microlitres of FCA); iv) EAE+N-acetyl cysteine at 18 mg/kg (EAE+NAC18); v) EAE+N-acetyl cysteine at 50 mg/kg (EAE+NACSO); vi) EAE+SAC at 18 mg/kg (EAE+SAC18) and vii) EAE+SAC at 50 mg/kg (EAE+SAC50). The treatments with NAC and SAC were administered to the animals orally 5 days a week at a dose of 18 mg/kg or 50 mg/kg of the animal's weight.
The analysis of the mobility of the animals, their sacrifice, tissue management, determination of the total proteins and the statistical analysis, was carried out as previously described in Example 3.

[3] = tested on: LPS (bacterial lipopolysaccharide); assay: LPS levels (LAL chromogenic endotoxin kit) in blood and spinal cord of EAE rats; details: Example 4, 50 mg/kg orally, SAC compared to NAC at the same concentration, FIG. 7
Protocol: as §3, with “weight. […]” for “weight.”
(§4) The measurement of lipopolysaccharide-binding soluble lipoprotein (LBP) levels was performed with the LBP soluble ELISA Kit (Enzo®, USA), in a sandwich ELISA system following the manufacturer's instructions. The levels of lipopolysaccharide (LPS) in blood and spinal cord were measured with the Pierce LAL Chromogenic endotoxin quantification kit supplied by Thermo Scientific (USA), following the manufacturer's instructions.® The data are presented as endotoxin units per milligram of tissue protein.

[4] = tested on: LBP (lipopolysaccharide binding protein); assay: Soluble LBP levels (ELISA) in brain, spinal cord and blood of EAE rats; details: authors' observation in the background section
Protocol: as §3, with “weight. […]” for “weight.”
as §4

[5] = Example 4, 18 mg/kg orally 5 days a week
[6] = Example 4, 50 mg/kg orally 5 days a week

Compound | GSH/GSSG ratio in brain and spinal cord [1] | Change in the clinical assessment of mobility between day 35 and day 14 [2] | Levels of LPS in blood and spinal cord [3] | Oxidative damage induced by MOG/FCA (LPO, GSH/GSSG), SAC compared with NAC ([1]; Example 3, oral 50 mg/kg, 35 days) | Change in the clinical assessment of mobility between days 35 and 14 [2, 5] | Change in the clinical assessment of mobility between days 35 and 14 [2, 6] | Level of LBP after administration in animal models (pro-inflammatory effect) [4]
COC(=O)/C=C/C(=O)OC [DMF, dimethyl fumarate] | increased the GSH/GSSG ratio with respect to untreated animals (EAE); also recorded: induces an increase in the GSH/GSSG ratio | showed a reduction of the clinical assessment of mobility between day 35 and 14 | – | – | – | – | –
C=CCSC[C@H](N)C(=O)O [SAC, S-allyl-L-cysteine] | increased the GSH/GSSG ratio with respect to untreated animals (EAE); also recorded: induces an increase in the GSH/GSSG ratio | showed a reduction of the clinical assessment of mobility between day 35 and 14 | significantly reduced the levels of LPS in blood and spinal cord compared to NAC | more effective than NAC in minimising oxidative damage induced by MOG/FCA; also recorded: corrects the oxidative damage induced by MOG/FCA to a higher percentage than the NAC | caused a reduction in the clinical assessment of mobility equivalent to that caused by 50 mg/kg of NAC or SAC | equally effective with respect to the group of animals with EAE without treatment | –
CC(=O)N[C@@H](CS)C(=O)O [NAC, N-acetylcysteine] | increased the GSH/GSSG ratio with respect to untreated animals (EAE); also recorded: induces an increase in the GSH/GSSG ratio | showed a reduction of the clinical assessment of mobility between day 35 and 14 | – | – | did not cause a reduction of the clinical assessment of mobility between days 35 and 14 | equally effective with respect to the group of animals with EAE without treatment | the level of LBP (lipopolysaccharide binding protein) increases
